Tests used:
SirT2 = molecular target: T1, SirT2 (Homo sapiens, UniProt Q8IXJ6); experiment: FLuc K529ac-based KDAC assay, inhibition or activation of SirT2 deacetylation
T1 sequence (Q8IXJ6 56-356): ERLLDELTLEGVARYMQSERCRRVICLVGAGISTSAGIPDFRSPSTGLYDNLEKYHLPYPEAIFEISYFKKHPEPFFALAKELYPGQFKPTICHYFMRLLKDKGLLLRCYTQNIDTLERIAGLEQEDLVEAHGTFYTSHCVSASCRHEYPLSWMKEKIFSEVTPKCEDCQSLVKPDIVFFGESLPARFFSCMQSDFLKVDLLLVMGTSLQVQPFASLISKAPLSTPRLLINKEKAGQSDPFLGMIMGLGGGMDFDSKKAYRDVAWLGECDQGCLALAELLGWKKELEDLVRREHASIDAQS
Description: Typical endpoint deacetylation reactions contain: 30 nM Firefly Luciferase K529ac, 1 mM NAD^+, 1 μg/ml KDAC in 50 μl KDAC buffer (25 mM Tris/HCl pH 8.0, 137 mM NaCl, 2.7 mM KCl, 1 mM MgCl2, 1 mM DTT, 1 mg/ml BSA). The reactions are incubated for 1 h at 25° C. Luciferase activity is then assayed by addition of an equal volume of a mixture containing 40 mM Tricine, 200 μM EDTA, 7.4 mM MgSO4, 2 mM NaHCO3, 34 mM DTT, 0.5 mM ATP and 0.5 mM luciferin, pH 7.8^4. Luminescence is quantified using a FluoStar Omega Microplate Reader (BMG Labtech).
The continuous FLuc-based KDAC assay was set up by mixing all the components of the endpoint assay immediately. Usually NAD^+ was omitted initially and added from a 20-fold stock solution after 5 min preincubation to start the reaction. Luminescence was recorded every minute over a period of 30 min. KDAC activity was calculated from the slope of the linear phase of the reaction.
The effect of the compounds was analyzed at 10 μM on SirT2 activity using the FLuc K529ac assay in endpoint format.

KDACs = experiment: FLuc K529ac activation by different KDACs; format: biochemical; conditions: purified FLuc K529ac
Description: FIG. 7: FLuc K529ac activation by different KDACs. Sirtuins were used at 20 μg/ml, while HDAC8 concentration was 10 mg/ml with tenfold higher FLuc K529ac. All error bars are standard deviations of triplicates.
It was tested whether purified FLuc K529ac can be used to quantify KDAC activity by incubating it with various different KDACs (FIG. 7). Prior to treatment with a KDAC the enzyme produced very little bioluminescence. After incubation with various KDACs the luminescence increased up to 130 fold.

Compound	IC50 (SirT2) [µM]	Luminescence increase after incubation with various KDACs (KDACs)
Oc1cc(O)cc(/C=C/c2ccc(O)c(O)c2)c1 [Compound 2, piceatannol]	5.5	–
FLuc K529ac: Firefly luciferase with N(ε)-acetyl-lysine in place of K529, reporter substrate for KDACs	–	up to 130 fold

Reference: US20200240995A1, “KDAC VARIANTS AND USES THEREOF” (Max-Planck-Gesellschaft Zur Forderung Der Wissenschaften …, priority 2017, published 2020)
